Results taken from patent EP2862575B1, “APPLICATION OF PICEATANNOL-3'-O-B-D-GLUCOPYRANOSIDE IN PREPARATION OF MEDICAMENTS FOR IMPROVING MICROCIRCULATION BLOCK” (KPC Pharmaceuticals, Inc., priority 2012, dated 2013).

Assays:
[1] = system: human; test: maximum tolerated dose for human calculated from animal doses; format: in vivo; conditions: calculated on the basis of a body weight of 60 kg from maximum tolerated dose of intramuscular and intravenous injection for animals
[2] = solubility test (excess compound shaken to equilibrium, UV at 319 nm); format: physicochemical; conditions: 25±1°C, 72 h
Method: A series of solutions of gastrodin or hydroxypropyl-β-cyclodextrin or a mixture of gastrodin and hydroxypropyl-β-cyclodextrin were prepared in volumetric flasks according to the concentrations specified in the tables below. Excessive piceatannol-3'-o-β-d-glucopyranoside was added to the solutions prepared above, which were then shaken at 25±1°C in a thermostatic water bath continuously for 72 h until equilibrium was reached. The solutions were precisely taken out and filtered through a 0.45µm filter. The filtered solutions were diluted to prepare test solutions containing 6µg piceatannol-3'-o-β-d-glucopyranoside per milliliter. Appropriate amount of control sample was precisely weighed out, dissolved in water and diluted to prepare a control solution. The absorbance values of both types of solutions were measured at 319 nm using UV spectrophotometry, from which the solubility can be calculated. The test results of solubility can be seen in the tables below: […]

[3] = system: mice; test: acute and long-term toxicity tests in mice; format: in vivo; conditions: administrated in a range of safe dose
[4] = system: beagle dog; test: acute toxicity test, gastric gavage, beagle dog; conditions: within 24 h
[5] = system: mouse; test: acute toxicity test, gastric gavage, mouse; conditions: within 24 h
[6] = genotoxicity test

Row | SMILES | maximum tolerated dose for human [1] [g] | Solubility of piceatannol-3'-o-β-d-glucopyranoside ([2]; Gastrodin 45 % + Hydroxypropyl-β-cyclodextrin 3 %) [mg/mL] | Solubility of piceatannol-3'-o-β-d-glucopyranoside ([2]; Gastrodin 50 % + Hydroxypropyl-β-cyclodextrin 3 %) [mg/mL] | Solubility of piceatannol-3'-o-β-d-glucopyranoside ([2]; Hydroxypropyl-β-cyclodextrin 45 %) [mg/mL] | Solubility of piceatannol-3'-o-β-d-glucopyranoside ([2]; Hydroxypropyl-β-cyclodextrin 50 %) [mg/mL] | toxic effect [3] | single maximum dosage given by gastric gavage [4] [g/kg.bw] | single maximum dosage given by gastric gavage [5] [g/kg.bw] | chromosome aberration or mutagenesis [6]
1 | OCc1ccc(O[C@@H]2O[C@H](CO)[C@@H](O)[C@H](O)[C@H]2O)cc1 [Gastrodin, 4-hydroxymethylphenyl-β-D-glucopyranoside hemihydrate] | 33.249 | – | – | – | – | – | – | – | –
2 | OC[C@H]1O[C@@H](Oc2cc(/C=C/c3cc(O)cc(O)c3)ccc2O)[C@H](O)[C@@H](O)[C@@H]1O [piceatannol-3'-o-β-d-glucopyranoside] | – | 186.789 | 188.029 | 180.509 | 183.10 | no toxic effect observed | 5 | 13.33 | no chromosome aberration or mutagenesis observed
